Assay [1] concerns the target Large T antigen (Simian virus 40, UniProt P03070). The assay is classed as functional, Betapolyomavirus macacae.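 Further: Confirmatory-stage PubChem screen for compounds that inhibit SV40 T antigen.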
Assay [2] addresses DNA dC->dU-editing enzyme APOBEC-3A (Homo sapiens, UniProt P31941). Put plainly: APOBEC3A DNA deaminase inhibitors, dose response, biochemical (AID 504722). It counts as functional.
Assay [3] addresses Glucose-6-phosphate 1-dehydrogenase (Homo sapiens, UniProt P11413). Put plainly: human G6PD enzyme inhibitors, dose response, selectivity assay for P. falciparum G6PD inhibitor project, biochemical, fluorescence (AID 504792). The assay is classed as functional.
The target in assay [4] is DNA dC->dU-editing enzyme APOBEC-3G (Homo sapiens, UniProt Q9HC16). Put plainly: Dose Response confirmation of small molecule APOBEC3G DNA Deaminase Inhibitors via a fluorescence-based single-stranded DNA deaminase assay. [Related pubchem assays (depositor defined):AID493012, AID493028]. The assay is classed as functional.
Assay [5] deals with Eukaryotic translation initiation factor 4E (Mus musculus, UniProt P63073). As to the kind of experiment: eIF4E–eIF4G protein interaction inhibitors, dose response, biochemical, TR-FRET (AID 855).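 Further: potency for disrupting eIF4E binding to eIF4GI seen as loss of FRET.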 It counts as functional.
Assay [6] has as its target T1, Lysine-specific demethylase 4C (Homo sapiens, UniProt Q9H3R0).
T1 sequence (Q9H3R0 whole entry): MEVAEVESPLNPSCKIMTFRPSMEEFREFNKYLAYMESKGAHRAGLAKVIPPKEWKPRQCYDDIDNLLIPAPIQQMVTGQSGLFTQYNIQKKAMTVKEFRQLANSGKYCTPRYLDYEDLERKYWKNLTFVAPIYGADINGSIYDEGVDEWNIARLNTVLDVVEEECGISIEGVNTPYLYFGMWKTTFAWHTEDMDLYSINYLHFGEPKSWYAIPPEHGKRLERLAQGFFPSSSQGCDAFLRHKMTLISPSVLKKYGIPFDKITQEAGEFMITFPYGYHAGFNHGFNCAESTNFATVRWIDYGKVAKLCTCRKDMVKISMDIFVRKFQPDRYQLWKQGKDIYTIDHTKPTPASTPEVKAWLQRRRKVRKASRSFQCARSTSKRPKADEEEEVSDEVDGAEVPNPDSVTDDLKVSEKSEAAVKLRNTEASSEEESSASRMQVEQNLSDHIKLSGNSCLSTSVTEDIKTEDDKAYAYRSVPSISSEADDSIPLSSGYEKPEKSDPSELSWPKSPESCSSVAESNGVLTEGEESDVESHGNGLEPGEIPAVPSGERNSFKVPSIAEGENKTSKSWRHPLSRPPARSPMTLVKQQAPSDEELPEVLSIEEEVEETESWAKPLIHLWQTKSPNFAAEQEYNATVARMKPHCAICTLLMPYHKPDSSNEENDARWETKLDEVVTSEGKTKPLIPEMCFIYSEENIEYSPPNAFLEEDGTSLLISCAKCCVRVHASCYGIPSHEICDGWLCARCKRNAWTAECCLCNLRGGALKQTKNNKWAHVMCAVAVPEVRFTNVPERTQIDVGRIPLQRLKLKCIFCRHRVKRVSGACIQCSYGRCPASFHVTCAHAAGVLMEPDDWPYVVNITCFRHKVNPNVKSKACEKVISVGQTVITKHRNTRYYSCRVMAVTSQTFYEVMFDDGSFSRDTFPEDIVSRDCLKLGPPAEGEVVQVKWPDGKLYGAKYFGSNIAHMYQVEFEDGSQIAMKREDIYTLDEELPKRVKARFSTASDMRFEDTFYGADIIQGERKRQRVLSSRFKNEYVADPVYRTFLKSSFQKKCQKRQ
Put plainly: GASC-1 (JMJD2C) histone demethylase inhibitors, dose response, biochemical, DELFIA europium, cherry-picked samples (AID 488835). The assay is classed as functional.

A short description of assay [7]: insulin promoter down-regulators in MIN6 cells, imaging, high-content screening, mouse beta cells (AID 1628). The assay is classed as functional.
Assay [8] is described as follows: cytotoxicity in MIN6 insulinoma cells, dose response, cytotoxicity control, cell-based, mouse insulinoma (AID 2122).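 Further: confirmatory high-throughput counterscreen run to flag cytotoxic compounds; mouse MIN-6 beta cells carrying an insulin promoter eGFP reporter.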 The assay is classed as functional.
Assay [9] relates to INS1. Put plainly: beta cell apoptosis inhibitors, cytokine rescue, dose response, luminescence, retest (AID 449756).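 Further: cell death triggered by IL-1 beta plus TNF-alpha plus IFN-gamma mixture; protective hits raise ATP signal compared with cytokine alone wells.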 The assay is classed as functional, cell-based. As to conditions: Rattus norvegicus.
Assay [10] has as its system Streptococcus sp. 'group A'. Put plainly: growth inhibition of control SK(-) GAS strain, dose response, counter-screen for streptokinase expression inhibitor project, luminescence, kanamycin, BacTiterGlo, confirmation (AID 1900). It counts as functional, organism-based. The note with it: Streptococcus sp. 'group A'.
For assay [11], the target named is T2, Streptokinase A (Streptococcus pyogenes serotype M1, UniProt P10520).
T2 sequence (P10520 whole entry): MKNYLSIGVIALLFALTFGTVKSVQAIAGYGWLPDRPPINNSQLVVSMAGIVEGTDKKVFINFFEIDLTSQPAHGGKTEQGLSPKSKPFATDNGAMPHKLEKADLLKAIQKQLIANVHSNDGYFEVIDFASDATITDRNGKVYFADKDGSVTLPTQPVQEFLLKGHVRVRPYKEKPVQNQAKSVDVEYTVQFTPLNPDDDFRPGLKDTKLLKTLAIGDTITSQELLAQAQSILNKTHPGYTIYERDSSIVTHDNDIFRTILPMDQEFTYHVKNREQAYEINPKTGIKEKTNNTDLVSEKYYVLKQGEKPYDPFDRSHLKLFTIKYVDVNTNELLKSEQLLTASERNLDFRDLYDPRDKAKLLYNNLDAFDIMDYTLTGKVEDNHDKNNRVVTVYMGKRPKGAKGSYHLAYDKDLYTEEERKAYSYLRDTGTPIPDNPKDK
Put plainly: S. pyogenes streptokinase expression inhibitors, potency, dose response, plasminogen activation absorbance, OD405 (AID 1914).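 Further: secreted streptokinase activity via plasminogen activation per viability signal from cell pellet.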 It counts as functional, Streptococcus pyogenes M1 GAS.

The target in assay [12] is T3, Kappa-type opioid receptor (Homo sapiens, UniProt P41145). The assay is classed as functional.
Assay [13] has as its target T4, Beta-galactosidase (Escherichia coli, UniProt Q8VNN2). The assay is classed as functional.
For assay [14], the target named is T3, Kappa-type opioid receptor. The assay is classed as functional. This is another data set of the same source.
Assay [15] concerns Streptococcus. As to the kind of experiment: Group A Streptococcus viability loss, dose response, counter-screen for streptokinase expression inhibitor project, luminescence, BacTiterGlo (AID 1915).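 Further: potency for reduction of bacterial viability or growth.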 The assay is classed as functional, organism-based. The note with it: Streptococcus.
For assay [16], the target named is T4, Beta-galactosidase. Put plainly: beta-galactosidase enzyme inhibitors and activators, dose response, artefact control for CCR6 antagonist project, biochemical, E. coli enzyme, set 3 (AID 504712). The assay is classed as functional.
For assay [17], the target named is T5, Coagulation factor XII (Homo sapiens, UniProt P00748).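 Further: activated factor XIIa alpha cleaving a fluorogenic AMC peptide substrate; inhibitor potency from loss of enzyme activity.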
T5 sequence (P00748 whole entry): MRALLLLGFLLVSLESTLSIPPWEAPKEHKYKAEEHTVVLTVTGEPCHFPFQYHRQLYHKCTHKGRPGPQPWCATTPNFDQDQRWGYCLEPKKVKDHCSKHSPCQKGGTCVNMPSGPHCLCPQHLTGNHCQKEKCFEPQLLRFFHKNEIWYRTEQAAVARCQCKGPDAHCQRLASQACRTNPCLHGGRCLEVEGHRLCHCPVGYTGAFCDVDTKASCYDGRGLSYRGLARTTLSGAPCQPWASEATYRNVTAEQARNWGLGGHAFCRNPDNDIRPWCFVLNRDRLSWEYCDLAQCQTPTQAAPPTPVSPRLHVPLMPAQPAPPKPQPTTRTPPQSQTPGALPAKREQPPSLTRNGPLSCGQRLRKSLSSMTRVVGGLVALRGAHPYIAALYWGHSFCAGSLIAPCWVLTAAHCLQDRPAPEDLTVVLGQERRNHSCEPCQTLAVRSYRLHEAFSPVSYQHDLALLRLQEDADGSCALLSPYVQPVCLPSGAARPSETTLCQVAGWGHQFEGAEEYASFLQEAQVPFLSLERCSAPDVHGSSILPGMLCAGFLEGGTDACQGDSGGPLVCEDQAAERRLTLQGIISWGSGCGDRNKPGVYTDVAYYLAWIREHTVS
It counts as functional.

The subject of assay [18] is HEK293. As to the kind of experiment: NOD1 signaling inhibitors, primary screen, cell-based, luminescence, uHTS (AID 1578). The assay is classed as functional. As to conditions: Homo sapiens.
Assay [19] has as its system HEK293. Put plainly: cells. It counts as functional, cell-based. As to conditions: Homo sapiens.
For assay [20], the system named is HEK293. Put plainly: cells. The note with it: Homo sapiens. The assay is classed as functional, cell-based. The source holds these as a separate data set.
For assay [21], the system named is HEK293. As to the kind of experiment: NOD2 signaling inhibitors in MDP-stimulated cells, cell-based, uHTS, luminescence (AID 2001). The assay is classed as functional. The note with it: Homo sapiens.
Assay [22] is described as follows: Shn3 3'UTR reporter inhibitors, dose response, cell-based, Clone20 osteoblasts, firefly luciferase, cherry-picked (AID 624132).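 Further: firefly luciferase luminescence from reporter carrying the Shn3 3'UTR in osteoblasts.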 It counts as functional.
A short description of assay [23]: HepG2 cell cytotoxicity, dose response, cytotoxicity control for Shn3 inhibitor project, CellTiter-Glo, cherry-picked (AID 624134). It counts as functional, cell-based.
A short description of assay [24]: control 3'UTR Renilla luciferase suppression, dose response, counter-screen for Shn3 inhibitor project, cell-based, Clone20-Shn3RL, cherry-picked (AID 624133). It counts as functional.

Calls of active or inactive are those of the source. A value given as a limit tells only on which side of the number the result lay.

T4 sequence (Q8VNN2 whole entry): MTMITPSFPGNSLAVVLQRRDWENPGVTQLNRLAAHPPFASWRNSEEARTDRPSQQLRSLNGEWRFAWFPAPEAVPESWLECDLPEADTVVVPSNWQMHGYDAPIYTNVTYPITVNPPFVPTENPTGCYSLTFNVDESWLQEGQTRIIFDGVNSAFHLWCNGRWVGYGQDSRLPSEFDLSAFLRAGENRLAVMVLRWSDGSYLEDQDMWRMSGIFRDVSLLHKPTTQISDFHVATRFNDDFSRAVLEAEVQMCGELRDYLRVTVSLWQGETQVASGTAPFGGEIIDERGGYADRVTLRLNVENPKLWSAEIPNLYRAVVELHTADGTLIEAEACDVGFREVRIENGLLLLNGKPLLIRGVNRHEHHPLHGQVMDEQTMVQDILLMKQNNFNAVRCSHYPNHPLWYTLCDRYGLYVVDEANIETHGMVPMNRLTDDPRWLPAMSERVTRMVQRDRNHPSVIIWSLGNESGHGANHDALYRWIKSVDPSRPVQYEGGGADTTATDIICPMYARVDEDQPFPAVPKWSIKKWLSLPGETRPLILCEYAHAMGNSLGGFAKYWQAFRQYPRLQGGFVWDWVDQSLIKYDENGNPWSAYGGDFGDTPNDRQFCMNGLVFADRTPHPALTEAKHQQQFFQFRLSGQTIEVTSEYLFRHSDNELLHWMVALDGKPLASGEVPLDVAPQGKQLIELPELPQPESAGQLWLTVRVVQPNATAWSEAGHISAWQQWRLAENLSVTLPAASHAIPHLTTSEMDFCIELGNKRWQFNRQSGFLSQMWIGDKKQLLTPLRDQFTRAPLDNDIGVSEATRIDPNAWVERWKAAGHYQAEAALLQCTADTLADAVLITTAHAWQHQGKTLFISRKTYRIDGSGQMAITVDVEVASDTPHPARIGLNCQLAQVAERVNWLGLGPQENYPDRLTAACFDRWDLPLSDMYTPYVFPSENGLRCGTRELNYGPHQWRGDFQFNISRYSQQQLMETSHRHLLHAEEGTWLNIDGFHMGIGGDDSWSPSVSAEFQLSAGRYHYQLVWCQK
T3 sequence (P41145 whole entry): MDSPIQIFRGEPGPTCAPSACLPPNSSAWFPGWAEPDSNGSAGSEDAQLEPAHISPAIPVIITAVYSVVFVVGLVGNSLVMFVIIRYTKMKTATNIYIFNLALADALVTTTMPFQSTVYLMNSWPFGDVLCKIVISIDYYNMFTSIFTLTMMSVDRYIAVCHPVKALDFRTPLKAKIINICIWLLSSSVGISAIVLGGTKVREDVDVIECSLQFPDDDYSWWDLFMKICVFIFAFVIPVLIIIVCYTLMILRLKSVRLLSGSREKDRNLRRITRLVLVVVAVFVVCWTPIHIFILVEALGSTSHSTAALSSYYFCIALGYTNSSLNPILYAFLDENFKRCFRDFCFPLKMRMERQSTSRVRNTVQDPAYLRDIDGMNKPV
Chain of Eukaryotic translation initiation factor 4E (P63073 whole entry): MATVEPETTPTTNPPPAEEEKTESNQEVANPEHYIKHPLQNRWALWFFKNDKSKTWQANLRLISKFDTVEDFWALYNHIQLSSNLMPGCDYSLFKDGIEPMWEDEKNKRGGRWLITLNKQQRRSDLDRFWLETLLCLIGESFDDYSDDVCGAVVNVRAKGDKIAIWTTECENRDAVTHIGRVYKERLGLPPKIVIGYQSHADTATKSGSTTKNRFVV
Chain of DNA dC->dU-editing enzyme APOBEC-3G (Q9HC16 whole entry): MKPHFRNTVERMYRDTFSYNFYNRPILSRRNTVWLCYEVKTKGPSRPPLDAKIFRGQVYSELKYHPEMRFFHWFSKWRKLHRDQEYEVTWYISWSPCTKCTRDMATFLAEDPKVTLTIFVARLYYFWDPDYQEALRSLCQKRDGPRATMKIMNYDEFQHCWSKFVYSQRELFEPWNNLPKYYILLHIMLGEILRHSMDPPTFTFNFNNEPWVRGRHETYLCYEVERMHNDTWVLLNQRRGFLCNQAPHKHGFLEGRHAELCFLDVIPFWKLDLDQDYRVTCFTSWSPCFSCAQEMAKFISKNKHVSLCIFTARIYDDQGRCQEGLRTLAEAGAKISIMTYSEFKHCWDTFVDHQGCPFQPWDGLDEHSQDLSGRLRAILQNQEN
Chain of Glucose-6-phosphate 1-dehydrogenase (P11413 whole entry): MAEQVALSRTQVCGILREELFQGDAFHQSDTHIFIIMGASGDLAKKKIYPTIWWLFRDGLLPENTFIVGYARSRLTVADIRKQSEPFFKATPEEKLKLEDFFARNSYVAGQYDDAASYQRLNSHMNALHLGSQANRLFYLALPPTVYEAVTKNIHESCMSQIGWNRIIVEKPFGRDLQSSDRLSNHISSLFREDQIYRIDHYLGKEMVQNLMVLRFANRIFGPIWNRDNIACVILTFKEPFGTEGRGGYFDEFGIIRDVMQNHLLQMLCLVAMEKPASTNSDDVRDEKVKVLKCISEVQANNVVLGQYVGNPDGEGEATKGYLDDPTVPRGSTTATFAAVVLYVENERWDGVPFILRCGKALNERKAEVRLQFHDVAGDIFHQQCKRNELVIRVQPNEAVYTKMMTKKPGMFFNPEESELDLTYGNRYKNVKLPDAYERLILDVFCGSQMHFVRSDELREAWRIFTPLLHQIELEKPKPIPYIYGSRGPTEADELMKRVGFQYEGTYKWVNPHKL
Chain of Large T antigen (P03070 whole entry): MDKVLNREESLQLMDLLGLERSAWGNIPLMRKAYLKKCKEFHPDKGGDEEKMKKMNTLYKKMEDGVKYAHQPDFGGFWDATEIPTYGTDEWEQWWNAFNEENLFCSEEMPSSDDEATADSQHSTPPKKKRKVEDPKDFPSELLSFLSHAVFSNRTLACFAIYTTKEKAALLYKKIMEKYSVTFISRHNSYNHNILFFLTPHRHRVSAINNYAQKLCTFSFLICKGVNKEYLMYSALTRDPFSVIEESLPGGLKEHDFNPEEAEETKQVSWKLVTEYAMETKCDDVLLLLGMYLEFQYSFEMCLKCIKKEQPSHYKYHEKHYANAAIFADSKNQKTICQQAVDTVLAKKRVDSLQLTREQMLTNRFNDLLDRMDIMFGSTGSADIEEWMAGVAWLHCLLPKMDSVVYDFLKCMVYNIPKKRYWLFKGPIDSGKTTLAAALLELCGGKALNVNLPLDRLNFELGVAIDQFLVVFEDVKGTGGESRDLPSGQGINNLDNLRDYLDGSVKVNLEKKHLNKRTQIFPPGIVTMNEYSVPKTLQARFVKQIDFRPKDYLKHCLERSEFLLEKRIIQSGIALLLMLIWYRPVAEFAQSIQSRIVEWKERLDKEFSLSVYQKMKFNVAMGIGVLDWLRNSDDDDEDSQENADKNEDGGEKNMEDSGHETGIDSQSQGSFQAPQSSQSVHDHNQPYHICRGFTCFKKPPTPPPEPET
Chain of DNA dC->dU-editing enzyme APOBEC-3A (P31941 whole entry): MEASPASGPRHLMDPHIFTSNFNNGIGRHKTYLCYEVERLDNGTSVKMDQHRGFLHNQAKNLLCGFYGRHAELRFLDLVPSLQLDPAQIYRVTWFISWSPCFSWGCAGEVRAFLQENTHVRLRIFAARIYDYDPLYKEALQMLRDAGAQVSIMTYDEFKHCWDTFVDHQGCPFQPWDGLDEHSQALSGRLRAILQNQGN

In the case of `Cc1cc(C)nc(SSc2nc(C)cc(C)n2)n1`, the IC50 is 28.2 µM (active) in assay [1], > 100 µM (inactive) in assay [2], > 80 µM (inactive) in assay [3] and 5.1 µM (active) in assay [4].
For `COc1ccc(CC2C(=O)NC(=O)N(c3ccccc3)C2=O)c(OC)c1` (configuration not stated), the IC50 in assay [5] is > 64 µM (inactive). Besides, the AC50 in assay [6] was 7.62 µM (active).
Turning to `O=[N+]([O-])c1ccc(N2CCN(C(S)=NCc3ccc(Cl)cc3)CC2)cc1`, the IC50 is 1.85 µM (active) in [7] and 2.83 µM (active) in [8]. Also, the AC50 in assay [9] is 6.14 µM (active).
Regarding `Cc1cc2nc(N3C(=O)CNC3=S)sc2cc1C`, the EC50 was 3.98 µM (active) in assay [10], > 150 µM (not active) in [11], > 31.5 µM (inactive) in [13] and 10.6 µM (active) in [15]. In addition, the IC50 in [12] was 8.55 µM (active); in assay [14] it was more than 32 µM; in [16], > 66.6 µM (inactive).
With `Cc1ccc(NC(=O)CCn2cccc2)cc1C`, the IC50 in assay [17] is > 50 µM (inactive).
On to `COc1ccc(CNCC(=O)Nc2sccc2C#N)cc1`, for which the AC50 in assay [6] was 25 µM (active).
Regarding `CCN1CCN(Cc2ccc(NC(=O)c3ccc(C)c(NC(=O)C(=O)c4c[nH]c5ccccc45)c3)cc2C(F)(F)F)CC1`, the EC50 in assay [18] is 17.2 µM (active). Further, the IC50 in assay [7] is 2.15 µM (active); in assay [19], 4.96 µM (active); in assay [8], 1.09 µM (active); in assay [20] it was 18.5 µM (active); in assay [21] it was 13.1 µM (inactive). The AC50 in [22] was 7.49 µM (active); in assay [23], 9.8 µM (active); in [24], 3.42 µM (active).

The values are drawn from ChEMBL document CHEMBL1201862, “PubChem BioAssay data set” (2004).
